From patent publication US8445441B2, “Inhibitors of BCL-2” (Case Western Reserve University, priority 2007, dated 2013)

Tests used:
Bcl-B = biological target: T1, Bcl-B (Homo sapiens, UniProt Q9HD36); settings: read-out: inhibitory concentration of 50% (IC50), displacing BH3 peptides; cited from earlier work
T1 sequence (Q9HD36 1-204): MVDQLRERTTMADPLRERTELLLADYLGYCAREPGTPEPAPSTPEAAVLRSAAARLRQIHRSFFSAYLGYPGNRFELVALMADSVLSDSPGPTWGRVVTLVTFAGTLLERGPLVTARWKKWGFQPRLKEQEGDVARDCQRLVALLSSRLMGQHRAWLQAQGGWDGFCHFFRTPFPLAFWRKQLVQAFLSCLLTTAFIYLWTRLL

Bfl-1 = biological target: T2, Bfl-1 (Homo sapiens, UniProt Q16548); settings: read-out: inhibitory concentration of 50% (IC50), displacing BH3 peptides; cited from earlier work
T2 sequence (Q16548 1-175): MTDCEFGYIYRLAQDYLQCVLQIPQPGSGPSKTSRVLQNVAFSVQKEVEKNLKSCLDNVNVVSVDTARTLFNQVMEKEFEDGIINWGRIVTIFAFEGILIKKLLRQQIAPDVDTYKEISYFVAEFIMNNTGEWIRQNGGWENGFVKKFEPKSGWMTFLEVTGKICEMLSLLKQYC

Bcl-XL = Bcl-XL (Homo sapiens, UniProt Q07817); settings: read-out: inhibitory concentration of 50% (IC50), displacing BH3 peptides; cited from earlier work
Bcl-2-IP3R interaction [1] = biological target: T3, Bcl-2-IP3R interaction (Homo sapiens, UniProt P10415); experiment: GST pull-down of Bcl-2 from Bcl-2(+) WEHI7.2 extracts with GST-IP3R domain 3; format: binding, mouse; parameters: expressed in transfected cells; host or cells: Bcl-2(+) WEHI7.2 cells (source of Bcl-2); settings: 1 mM peptide
From the text: To identify where Bcl-2 interacts on the IP3R, we used a series of GST-IP3R fusion constructs corresponding to five fragments covering the first N-terminal 2216 amino acids and 1 fragment corresponding to the last 160 amino acids of mouse IP3R type 1 (FIG. 3). These fragments are located in the cytoplasm and coincide with “natural” domains generated by limited proteolysis. The transmembrane domain was not included. After purification, fragments migrated as single prominent bands corresponding to their expected molecular weights, although some minor degradation products were detected.
The first set of GST pull-down experiments utilized extracts of Bcl-2(+) WEHI7.2 cells and Jurkat cells as two independent sources of Bcl-2. Cell extracts were incubated with GST-IP3R fragments prebound to glutathione sepharose resin, with equal loading of the GST-IP3R fragments. […] These experiments were repeated a total of five times with the same result. It is important to note that, following incubation of cell extracts with GST-IP3R fragments on the glutathione sepharose resin, the resin was washed extensively.
Since the IP3R binding region was narrowed down to the 80 amino acid subdomain 3a1 (aa 1347-1426), we designed two 20 amino acid peptides (peptide 1, aa 1365-1384 (SEQ ID NO:2); peptide 2, aa 1389-1408 (SEQ ID NO:3)) based on the degree of homology in this region among different IP3R isoforms. Also, preference was given to regions that have beta-turn and/or α-helical structures, rather than random-coil or nonstructured sequences, expecting that one or both of the peptides could inhibit the Bcl-2-IP3R interaction. Furthermore, the C-terminal region of domain 3a1 was not selected because of its lower accessibility and unpredictable secondary structure (Invitrogen PeptideSelect Design Tool). The scrambled sequence of peptide 2 was also synthesized and used as a control. […] The inhibitory effect of peptide 2 on Bcl-2-IP3R interaction was also detected in coimmunoprecipitation assays employing both Bcl-2(+) WEHI7.2 cells (FIGS. 4A and 4B) and Jurkat cells (FIG. 4C). […]

Jurkat cells [2] = experiment: anti-CD3-induced apoptosis (apoptotic nuclei); format: cell-based; settings: 60 μM peptide with Chariot, 5 μg/ml anti-CD3, 24 hr, anti-CD3 alone 20%-30%
Experimental: FIG. 7 illustrates peptide 2 Enhances Anti-CD3-Induced Apoptosis in Bcl-2-Positive Cells (A) Typical apoptotic nuclear morphology (arrow, Hoechst 33342 stain) 24 hr after 5 μg/ml anti-CD3 treatment of Jurkat cells. Scale bars, 10 μm. (B) Bcl-2(−) and Bcl-2(+) WEHI7.2 cells were pre-incubated±60 μM peptides plus Chariot reagent and then incubated with 20 μg/ml anti-CD3 for 24 hr. Symbols represent the percentage of cells (mean±SEM) with apoptotic nuclei in three experiments for Bcl-2(−) and five experiments for Bcl-2(+) cells (200 cells counted per coverslip). (C) Jurkat cells were pre-incubated±60 μM peptides±Chariot reagent and then incubated with 5 μg/ml anti-CD3 for 24 hr. Symbols represent the percentage of cells (mean±SEM) with apoptotic nuclei in five experiments (240 cells counted per coverslip).
Peptide 2 also attenuated Bcl-2's inhibition of anti-CD3-induced apoptosis in Jurkat cells. In preliminary studies (data not shown), we tested several anti-CD3 concentrations. Higher concentrations of anti-CD3 induced high levels of apoptosis that might obscure the effect of the peptide. We therefore used 5 μg/ml anti-CD3, sufficient to induce 20%-30% apoptosis.

Bcl-2-IP3R interaction [3] = biological target: T3, Bcl-2-IP3R interaction; experiment: coimmunoprecipitation of Bcl-2 with IP3R from cell extracts; format: binding; parameters: expressed in transfected cells; host or cells: Bcl-2(+) WEHI7.2 cells; also Jurkat cells (endogenous Bcl-2); settings: 400 μM peptide; Bcl-2(+) WEHI7.2 and Jurkat cell extracts
Experimental: FIG. 4 illustrates an IP3R Peptide Inhibits Bcl-2-IP3R Interaction but Not Bim-Bcl-2 Interaction. (A and D) IP3R was immunoprecipitated from extracts of Bcl-2(+) WEHI7.2 cells (C) or Jurkat cells in the presence of 400 μM peptides. Peptide 2, but not peptide 1 or control peptide, inhibited the Bcl-2-IP3R coimmunoprecipitation. Summary of Bcl-2 immunoblot signal intensities in three […] experiments identical to (C) (mean±SEM). (B) Bcl-2 was immunoprecipitated from Bcl-2(+) WEHI7.2 cell extracts in the presence of 400 μM peptides, and coimmunoprecipitation of Bim was detected by anti-Bim immunoblotting. […] (E) Summary of Bim immunoblot signal intensities in three experiments identical to (B) (mean±SEM).
Since the IP3R binding region was narrowed down to the 80 amino acid subdomain 3a1 (aa 1347-1426), we designed two 20 amino acid peptides (peptide 1, aa 1365-1384 (SEQ ID NO:2); peptide 2, aa 1389-1408 (SEQ ID NO:3)) based on the degree of homology in this region among different IP3R isoforms. […] The inhibitory effect of peptide 2 on Bcl-2-IP3R interaction was also detected in coimmunoprecipitation assays employing both Bcl-2(+) WEHI7.2 cells (FIGS. 4A and 4B) and Jurkat cells (FIG. 4C). […]

WEHI7.2 cells = experiment: anti-CD3-induced Ca2+ elevation by digital imaging; format: cell-based; settings: Bcl-2(+) WEHI7.2 cells; 60 μM peptide with Chariot reagent
Experimental: (§1) FIGS. 6A-D illustrates peptide 2 (SEQ ID NO:3) Reverses Bcl-2's Inhibition of Anti-CD3-Induced Ca^2+Elevation. (A) Representative Ca^2+ traces (each the mean of ˜65 cells) recording anti-CD3 (arrow, time of addition)-induced Ca^2+ elevation in Bcl-2(+) WEHI7.2 cells. Peptide (60 μM) uptake was facilitated by Chariot reagent. (B) Peak anti-CD3 induced Ca^2+ elevation in Bcl-2(−) and Bcl-2(+) WEHI7.2 cells treated with peptides as in (A) [mean±SEM, five experiments for Bcl-2(−) and seven experiments for Bcl-2(+) cells, with mean 68 cells per sample per experiment]. (C) Representative Ca^2+ traces in Jurkat cells (mean 85 cells each). Treatment conditions are the same as in (A), except that a control involving addition of peptide 2 without Chariot reagent has been added. (D) Peak anti-CD3-induced Ca^2+ elevation in Jurkat cells treated with peptides as in (C) (mean±SEM, seven experiments, mean 81 cells per sample per experiment).
(§2) Next we investigated whether peptide 2 also reverses Bcl-2's inhibitory effect on Ca^2+ release through the IP3R in Bcl-2(+) and (−) WEHI7.2 clones, newly derived WEHI7.2 mixed populations exogenously expressing Bcl-2, and Jurkat cells. Optimal conditions for peptide delivery and anti-CD3 concentration were determined in preliminary experiments. Peptide delivery in the lipid bilayer is 100%, whereas the penetration of peptide 2 into cells is much less, accounting for the lesser effect in cells. Therefore, a higher concentration of peptide (60 μM) was delivered into cells using the Chariot delivery reagent. Cytoplasmic Ca^2+ concentration was continuously measured at a single-cell level by digital imaging during anti-CD3 treatment. Representative Ca^2+ traces from Bcl-2(+) WEHI7.2 cells are shown in FIG. 6A, and the average Ca^2+ elevation induced by anti-CD3 in seven experiments is summarized in FIG. 6B. Observed variations in lag phase are at least partially attributable to the fact that lymphocytes are only loosely adherent to coverslips and thus rapid buffer exchange is not possible during antibody additions. Peptide 2 enhanced anti-CD3-induced Ca^2+ elevation in Bcl-2(+) WEHI7.2 cells by 40%. […] Peptide 2 had no effect on Ca^2+ elevation when added to the cells in the absence of the Chariot reagent. […] The low Bcl-2 level in Jurkat cells and the barely detectable endogenous Bcl-2 in Bcl-2(−) WEHI7.2 cells are consistent with the higher amplitude and longer duration of the Ca^2+ response in these cells in contrast to Bcl-2(+) WEHI7.2 cells (compare FIGS. 6A and 6B to FIGS. 6C and 6D). Thus, peptide 2 modulated anti-CD3-induced Ca^2+ elevation in both Bcl-2(+) WEHI7.2 cells and Jurkat cells, consistent with the ability of peptide 2 to disrupt Bcl-2-IP3R interaction.

Jurkat cells [4] = experiment: anti-CD3-induced Ca2+ elevation by digital imaging; format: cell-based; settings: Jurkat cells; 60 μM peptide with Chariot reagent
Experimental: as §1, §2

T3 sequence (P10415 whole entry, the tested form may be a part): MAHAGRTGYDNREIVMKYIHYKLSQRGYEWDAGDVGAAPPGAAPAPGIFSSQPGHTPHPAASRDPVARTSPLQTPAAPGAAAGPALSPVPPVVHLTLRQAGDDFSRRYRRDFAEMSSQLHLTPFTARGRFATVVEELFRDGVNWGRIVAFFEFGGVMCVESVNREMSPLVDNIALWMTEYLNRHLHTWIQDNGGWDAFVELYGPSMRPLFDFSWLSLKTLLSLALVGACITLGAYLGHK
Sequence of Bcl-XL (Q07817 whole entry, species assumed, the tested form may be a part): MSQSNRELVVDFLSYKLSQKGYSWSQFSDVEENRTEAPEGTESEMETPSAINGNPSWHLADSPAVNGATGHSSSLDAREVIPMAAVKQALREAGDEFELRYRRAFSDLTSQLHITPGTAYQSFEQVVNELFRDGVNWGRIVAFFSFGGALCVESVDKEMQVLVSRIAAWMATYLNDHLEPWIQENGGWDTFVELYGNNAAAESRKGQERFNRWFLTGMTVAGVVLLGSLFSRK

Row | Compound | IC50 (Bcl-B) [nM] | IC50 (Bfl-1) [nM] | IC50 (Bcl-XL) [nM] | amount of Bcl-2 bound to GST-IP3R domain 3 (Bcl-2-IP3R interaction [1]) | anti-CD3-induced apoptosis (percentage of apoptotic cells) (Jurkat cells [2]) | inhibition of Bcl-2-IP3R coimmunoprecipitation (Bcl-2-IP3R interaction [3]) | enhancement of anti-CD3-induced Ca2+ elevation (WEHI7.2 cells) | enhancement of anti-CD3-induced Ca2+ elevation (Jurkat cells [4])
1 | Cc1cc2c(C(C)C)c(O)c(O)c(C=O)c2c(O)c1-c1c(C)cc2c(C(C)C)c(O)c(O)c(C=O)c2c1O [Gossypol, 1,6,7,1′,6′,7′-Hexahydroxy-5,5′-diisopropyl-3,3′-dimethyl-[2,2′]binaphthalenyl-8,8′-dicarbaldehyde] | ~500 | ~500 | ~500 |  |  |  |  | 
2 | MDENSPLMYHIHLVELLAVC (listed as Homo sapiens) [peptide 1, 20 amino acid peptide, aa 1365-1384 of IP3R subdomain 3a1] |  |  |  | partially inhibited | did not have an effect | did not inhibit | did not enhance | did not
